Key:
mPer1 promoter = assay: NHR-promoter luciferase screen, mPer1 promoter; format: cell-based, mouse; settings: for Luc. act., normalized to lacZ / Normalized Luc. act., normalized to control: Per1 promoter reporter, co-transfected HR, with or without its ligand; for Normalized Luc. act., normalized to control: relative to control; for luciferase activity normalized to lacZ activity and to a control, mPer1: mPer1 promoter-luciferase, CV-1 cells, NHR +/- ligand, control = 1.00
Method: (§1) The use, feasibility, and reproducibility of the functional NHR-promoter screen in a 48-well format have been tested validated. Briefly, there were co-expressed 50 ng of each NHR/NHR homodimer or NHR/RXR heterodimer with 100 ng promoter/luciferase construct and 50 ng of LacZ (as a control for transfection efficiency) in CV-1 cells using Fugene HD (Roche) as a transfection reagent (alternatively or additionally, a CMV-YFP construct can be used as a transfection control). Each of the nuclear hormone receptors that were used in these experiments was cloned into a pcDNA3.1 vector and comprised a C-terminally linked V5H6 tag. Twenty-four hours after transfection, appropriate ligands were added, where applicable, (see Table 5 for various ligands and concentrations and after 48 hrs, samples were assayed for luciferase and LacZ activity. To measure for luciferase activity 15 ul of sample was added to 30 ul of luciferase buffer (20 mM tricine, 1.07 mM MgCarbonate, 2.67 mM MgSulfate, 0.1 mM Naz-EDTA, 5 mM DTT, 5 mM ATP, 0.15 mg/ml CoA, 0.5 mM Luciferin), mixed briefly, and run in a Perkin Elmer Victor 5 luminometer. Thus, the functional NHR-promoter screen was used to observe the transcriptional activity of 29 promoters from various physiological pathways including inflammation, lipid and sugar metabolism, cholesterol transport, xenobiotic metabolism, and circadian rhythm.
(§2) The promoters that facilitate transcription of the indicated gene products that were tested using the protocols described herein are listed in the first row of the table. The nuclear hormone receptors and, where applicable, ligands that were assayed for their transcriptional effects on the promoters are listed in the first column of the table. The data represent the luciferase activity of each sample normalized to both the lacZ activity of that sample and to a control, e.g., no NHR or ligand, as customary in the art. As described previously, these normalizations allow the transcriptional activity of each reporter cell to be compared to other samples.
(§3) Tables 7-40 show the transcriptional effects of the hormone receptors, and, where applicable, ligands (orphan receptors are screened without ligand), on each individual promoter. […] The control data of each table are shown in their last rows.

mLeptin promoter = assay: NHR-promoter luciferase screen, mLeptin promoter; format: cell-based, mouse; settings: for Luc. act., normalized to lacZ / Normalized Luc. act., normalized to control: Table 7, mLeptin; for Results of assays of transcription factor (+/- ligand) with mLeptin: Table 6d, luciferase activity relative to control (control = 1.00); for luciferase/LacZ, mLeptin (selected results): mLeptin promoter-luciferase, NHR +/- ligand, control = 1.0
Method: as §1, §2, §3

mNPY promoter = assay: NHR-promoter luciferase screen, mNPY promoter; format: cell-based, mouse; settings: for Results of assays of transcription factor (+/- ligand) with mNPY: Table 6d, luciferase activity relative to control (control = 1.00); for Luc. act., normalized to lacZ / Normalized Luc. act., normalized to control: mNPY promoter, HR component with or without ligand; for Normalized Luc. act., normalized to control: relative to control
Method: as §1, §2, §3

hPPARg1 promoter = assay: NHR-promoter luciferase screen, hPPARg1 promoter; format: cell-based, human; settings: for Luc. act., normalized to lacZ / Normalized Luc. act., normalized to control: PPARG1 promoter, hormone receptor with or without its ligand; for Normalized Luc. act., normalized to control: relative to control; for Results of assays of transcription factor (+/- ligand) with hPPARg1: Table 6d, luciferase activity relative to control (control = 1.00)
Method: as §1, §2, §3

hPPARg2 promoter = assay: NHR-promoter luciferase screen, hPPARg2 promoter; format: cell-based, human; settings: for Luc. act., normalized to lacZ / Normalized Luc. act., normalized to control: PPARG2 promoter, hormone receptor with or without its ligand; for Normalized Luc. act., normalized to control: relative to control; for Results of assays of transcription factor (+/- ligand) with hPPARg2: Table 6d, luciferase activity relative to control (control = 1.00)
Method: as §1, §2, §3

Substance	Luc. act., normalized to lacZ (mPer1 promoter)	Normalized Luc. act., normalized to control (mPer1 promoter)	luciferase activity normalized to lacZ activity and to a control, mPer1 (mPer1 promoter)	Luc. act., normalized to lacZ (mLeptin promoter)	Normalized Luc. act., normalized to control (mLeptin promoter)	Results of assays of transcription factor (+/- ligand) with mLeptin (mLeptin promoter)	Results of assays of transcription factor (+/- ligand) with mNPY (mNPY promoter)	Luc. act., normalized to lacZ (mNPY promoter)	Normalized Luc. act., normalized to control (mNPY promoter)	Luc. act., normalized to lacZ (hPPARg1 promoter)	Normalized Luc. act., normalized to control (hPPARg1 promoter)	Results of assays of transcription factor (+/- ligand) with hPPARg1 (hPPARg1 promoter)	Luc. act., normalized to lacZ (hPPARg2 promoter)	Normalized Luc. act., normalized to control (hPPARg2 promoter)	Results of assays of transcription factor (+/- ligand) with hPPARg2 (hPPARg2 promoter)	luciferase/LacZ, mLeptin (selected results) (mLeptin promoter)
PNR: Photoreceptor-specific Nuclear Receptor (NR2E3), cDNA driver	93.4	0.6	0.65	2.0	0.7	0.68	2.00	168.3	2.0	45.9	0.7	0.67	1.0	0.5	0.51	–
AR: Androsterone Receptor (NR3C4), cDNA driver	123.5	0.9	0.86	2.5	0.8	0.84	1.12	93.8	1.1	90.6	1.3	1.31	2.7	1.3	1.34	–
PPARg: Peroxisome proliferator activated receptor γ (NR1C3), cDNA driver	154.5	1.1	1.07	2.9	1.0	1.00	1.14	95.6	1.1	75.7	1.1	1.10	2.2	1.1	1.08	1.0
PPARa: Peroxisome proliferator activated receptor α (NR1C1), cDNA driver	180.7	1.3	1.25	2.4	0.8	0.81	0.62	51.7	0.6	57.6	0.8	0.84	2.4	1.2	1.20	–
ERR1: Estrogen Related Receptor α (NR3B1, ERRa), cDNA driver	197.1	1.4	1.37	2.6	0.9	0.88	0.83	69.6	0.8	59.1	0.9	0.86	1.7	0.8	0.84	–
TLX: Tailless (homolog of drosophila) (NR2E1), cDNA driver	217.6	1.5	1.51	2.6	0.9	0.89	1.11	93.5	1.1	107.9	1.6	1.57	0.9	0.4	0.43	–
LXRa: Liver X Receptor α (NR1H3), cDNA driver	100.6	0.7	0.70	1.9	0.7	0.65	0.67	56.2	0.7	80.8	1.2	1.17	1.3	0.6	0.64	–
NR4a1: NR4a1 (NR4A1; NUR77), nuclear hormone receptor cDNA driver	503.5	3.5	3.50	2.3	0.8	0.80	0.92	77.0	0.9	129.6	1.9	1.88	1.6	0.8	0.81	0.8
GR: Glucocorticoid Receptor (NR3C1), cDNA driver	384.1	2.7	2.67	1.7	0.6	0.58	0.57	47.8	0.6	37.2	0.5	0.54	2.3	1.1	1.15	0.6
